Measured values as given in PubChem BioAssay AID179 (DTP/NCI, 2004).
The source made the active and inactive calls.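 Rule for the calls: active = compounds giving half or more protection of infected cells from virus-caused growth loss, again on retest; inactive = the rest.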

System: CEM cells HIV-1 protection, formazan growth assay
Experiment: NCI AIDS Antiviral Assay
Settings: for IC50: measured here: growth of uninfected CEM cells
Procedure, shortened: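 Protection of CEM cells against HIV-1 was scored from cell growth (soluble formazan) across five concentrations, with parallel uninfected cells. Lack of protection may reflect toxicity.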

SMILES | EC50 [µM] | IC50 [µM] | outcome
CCOC(=O)c1ccc(N=C2Sc3nc4ccccc4n3C2=Nc2ccc(C(=O)OCC)cc2)cc1 | > 50.1 | > 50.1 | –
O=C1CCCC[C@H]1[C@H]1CCC[C@@H]([C@H]2CCCCC2=O)C1=O | > 871 | 398 | –
O=C1CC(CC(O)C2CCCC2O)CC(=O)N1 (configuration not stated) | > 200 | > 200 | –
O=C(Cc1csc(-c2nc(CC(=O)NNc3ccccc3)cs2)n1)NNc1ccccc1 | > 145 | > 145 | –
C[C@@H]1OC(=O)N2CCCC(=C3SCCCS3)C12 (some centres not stated) | – | – | inactive
COc1cc(OC)c(C#N)c(OC)c1C | – | – | inactive
COC12C=CC(CC1)C(C)(C)C2O (configuration not stated) | > 200 | > 200 | inactive
CC1(C)OCC(COC(=O)NCn2cc(-c3ccccc3)nn2)O1 (configuration not stated) | > 200 | > 200 | –
NC(=O)C(=Cn1c(=S)[nH]c2ccc([N+](=O)[O-])cc21)C(N)=O | > 200 | > 200 | –
CC1=C(C(=O)Nc2cc(F)c(F)cc2F)C(c2ccc(N(C)C)cc2)C(C(=O)Nc2cc(F)c(F)cc2F)=C(C)N1 | > 23.4 | > 23.4 | –
CCOC(=O)C(=O)Nc1nc2ccc(OC)cc2s1 | > 447 | > 447 | –
CC(=O)OCC1OC(n2c(=O)n(-c3ccccc3)c(=O)c3cc(Br)cc(Br)c32)C(OC(C)=O)C(OC(C)=O)C1OC(C)=O (configuration not stated) | > 13.8 | > 13.8 | –
O/N=C1\CCCCC1C(NO)c1ccccc1 (configuration not stated) | > 398 | 191 | –
COc1cc(-c2cc(=O)c3c(O)c(OC)c(OC)c(OC)c3o2)cc(OC)c1OC | > 70.8 | > 70.8 | –
CO/C=C/CCCN(CC#N)Cc1ccccc1 | > 27.5 | > 27.5 | –
O=c1c(Cl)c(Cl)cnn1-c1ccc([N+](=O)[O-])cc1[N+](=O)[O-] | > 20.4 | > 20.4 | –
COc1ccc(-c2c3c(n(C4OC(CO)C(O)C(O)C4O)c(=S)c2C#N)CC(C)(C)CC3=O)cc1 (configuration not stated) | > 200 | 105 | –
CCOc1cc2c(cc1Cc1ccc(OC)cc1)OCO2 | > 91.2 | 0.631 | –
O=C1C(=C(C(F)(F)Cl)C(F)(F)Cl)C2CCC1C2 (configuration not stated) | – | – | inactive
O=C1c2ccoc2C(=O)c2oc(=O)ccc21 | > 102 | 5.75 | –

SMILES | EC50 [µM] | IC50 [µM] | outcome
CNC(=O)CN(CC(=O)O)C(=O)NC | > 1230 | > 1230 | –
CC(=O)Oc1cc2c(cc1OC(C)=O)C1(C)CCC2(C)c2cc(OC(C)=O)c(OC(C)=O)cc21 | – | – | inactive
O=[N+]([O-])C(=C/c1cccs1)/C(=C\c1cccs1)[N+](=O)[O-] | > 200 | 1.55 | –
COc1ccc(C2N(c3ccc(C)c(N=C=O)c3)C(=O)N3C(c4ccc(OC)cc4)N(c4ccc(C)c(N=C=O)c4)C(=O)N23)cc1 (configuration not stated) | > 200 | 12.6 | –
COc1ccc(C2[C@H]3C(=O)N(c4ccc(Cc5ccc(N6C(=O)[C@@H]7ON(c8ccccc8)C(c8ccc(OC)cc8)[C@@H]7C6=O)cc5)cc4)C(=O)[C@H]3ON2c2ccccc2)cc1 (some centres not stated) | > 4.68 | > 4.68 | –
COC[C@@H]1[C@H]2OC(C)(C)O[C@H]2C(=O)N1C(=O)c1ccc(OC)cc1 | > 200 | > 200 | –
CCCCCC/C=C/CCCCCCCc1cccc(O)c1C(=O)O | > 102 | 63.1 | –
CCOC(C[C@H](O[Si](C)(C)C(C)(C)C)[C@H]1COC(=S)S1)OCC | > 200 | 155 | –
CSC(SC)(C(=O)O)c1cc(-c2c(Cl)cccc2Cl)no1 | > 81.3 | 70.8 | –
CN=C(c1ccc(NC(=O)c2ccc(C(=O)Nc3ccc(C(=NC)N4CCOCC4)cc3)c(Cl)c2)cc1)N1CCOCC1 | > 200 | > 200 | –
CC(=O)Nc1cc2cc(N)ccc2oc1=O | > 107 | > 107 | –
COc1cccc(/C=C2\C(=O)N(C(=O)c3ccc(NC(C)=O)cc3)N=C2C)c1 | > 36.3 | > 36.3 | –
OC1C(CBr)OC(OC[C@H](COCc2ccccc2)OCc2ccccc2)C(O)C1O (some centres not stated) | > 214 | > 100 | –
O=C1OCC2=Nc3cccc4cccc(c34)N12 | > 0.676 | 0.331 | –
COc1cc(C(Cc2ccccc2)NC(C)=O)oc(=O)c1 (configuration not stated) | > 871 | 155 | –
Cc1cc(C)nc(NS(=O)(=O)c2ccc(NC(=O)c3ccc4nc5ccccc5c(Nc5ccc(S(=O)(=O)Nc6nc(C)cc(C)n6)cc5)c4c3)cc2)n1 | > 200 | 29.5 | –
COC(=O)[C@H]1COC(=S)N1C(=O)[C@@H](C)[C@H](O)C(C)C | > 631 | > 631 | –
CC1(C)OC(=O)C(=Cc2ccc(O)cc2)C(=O)O1 | > 1000 | 550 | –
CC1(C)OC(=O)C(C#N)=C1C[n+]1ccccc1 | > 263 | > 263 | –
O=C1NCCN1/N=C/c1ccc([N+](=O)[O-])o1 | > 200 | 120 | –
